Where two headings read alike, the source gives them in different places.

In general, IC50 refers to the midpoint of a concentration-inhibition curve.

The test system of data set [1] is SD rats. Description: Effect on rat hemodynamics (left ventricular pressure, heart rate). As to conditions: anesthetized SD rats, 3 min after administration.
Data set [2] has as its system rat myocardiocytes. Description: Inhibition of KCl-induced extracellular calcium influx (Fluo-3 fluorescence, confocal microscopy). The data set is classed as cell-based. As to conditions: 60 mM KCl; for reduction of Ca^2+ fluorescent intensity, maximum degree: 0.1–10 μM. The method, then: Fluorescence intensity of Ca^2+ in myocardial cell was determined by laser scanning confocal microscopy (ACAS/ULTIMA312, Meridian Instruments) as previously described. Rat myocardiocytes were grown on 24-mm glass coverslips in 6-well plates in DMEM containing 10% FBS. After 24 h, the cells were incubated with Fluo 3-AM (20 μM) for 60 min in the dark at 37°C. Then, the cells were washed with HBSS three times to remove extracellular Fluo 3-AM. HBSS (HEPES-buffered physiological saline solution) contains 130 mM NaCl, 2.5 mM KCl, 1.2 mM MgCl2, 10 mM HEPES, 10 mM glucose, and 2 mM CaCl2, pH 7.4 (adjusted with NaOH). […] KCl was added into the cultured cells to induce the influx of extracellular Ca^2+ in HBSS and changes in fluorescence were recorded. Myocardiocytes were incubated for 30 min with 0.1, 1, and 10 μM compounds before adding KCl. Effect of compounds on KCl-induced changes in fluorescence was investigated.

Data set [3] deals with H9c2 cell. In words: LDH in culture medium under hypoxia/reoxygenation, H9c2 cells. As to conditions: 1 × 10^−6 mol/L, vs H/R group (p < 0.01). The data set is classed as cell-based. The method, then:
(§1) Myocardiocytes H9c2 cell and the one which the L-type calcium channel gene was knock-out, the […]-/-) were incubated separately in culture plates. When cell confluence reached 85%, the cells were incubated for another 12 hours in DMEM medium with 0.5% FBS. Then cells were randomly divided into 6 groups, namely the control group, H/R group, DMSO group, H/R+X1(1 × 10^-6 mol/L) group, H/R+X2 (1 × 10^-6 mol/L) group and H/R+X3 (1 × 10^-6 mol/L) group. The hypoxic DMEM culture medium and reoxygenation medium were used in H/R process. The final volume was 500 uL. The compounds (X1, X2, X3) were administered continuously during the hypoxia/reoxygenation process. Finally, cell supernatant was collected and LDH was measured by colorimetric method according to the Kit instruction by manufacturer (Nanjin Jiancheng Lit. China).

Data set [4] concerns the target T1, L-type calcium channels in rat ventricular myocytes (Rattus norvegicus, UniProt P0DP29+P22002).
T1 construct: reduced the amplitude of the L-type calcium current in rat myocardiocytes; endogenous in cells; host or cells: rat ventricular myocytes (single cells)
Description: Inhibition of L-type calcium current (patch-clamp). As to conditions: 0.1 to 10 μM, rat myocardiocytes. The data set is classed as cell-based.

Data set [5] relates to isolated rat thoracic aortic rings. Description: Vasodilation on KCl (60 mM)-contracted isolated rat thoracic aortic rings. As to conditions: KCl (60 mM)-induced contraction of rat aortic rings; 0.1 to 10 μM. The protocol: The vasodilation activity of compounds was evaluated in isolated rat thoracic aortic rings according to the methods of Greenwood and Polster et al. The aortic rings were allowed to equilibrate in Krebs bicarbonate solution ((PSS), containing118.0 mM NaCl, 4.7 mM KCl, 1.2 mM KH2PO4, 1.2 mM MgSO4.7H2O, 5.0 mM glucose, 25.0 mM NaHCO3, and 2.5 mM CaCl2.7H2O at 37°C and were gassed with 95% O2 and 5% CO2 for 90 min at a testing tension. KCl (60 mM) was used to depolarize the aortic rings. When the amplitude of the contraction reached a plateau, compounds X1, X2, X3 were added. Cumulative concentration-response curves to all compounds were determined in the absence and presence of endothelium. Using tips of forceps, the endothelium was mechanically removed from some rings by gently rubbing the lumen, if absence of endothelium is needed. Acetylcholine was used to confirm the removal of endothelium from the aortic rings.

The test system of data set [6] is H9c2 cell (Cacnalc−/−). In words: LDH in culture medium under hypoxia/reoxygenation, H9c2 (Cacnalc−/−) cells. The data set is classed as cell-based. As to conditions: 1 × 10^−6 mol/L. The protocol: as §1
Data set [7] concerns SD rats. As to conditions: rat, in vivo.

Consider `COC(=O)C1=C(C)NC(C)=C(C(=O)OC)C1c1ccccc1[N+](=O)[O-]` [Nif, nifedipine], for which, in data set [1] (0.25 mg/kg), the HR stood at 372 ± 29, the LVEDP is given as 29.33 ± 5.56 and the LVSP was found to be 137.21 ± 18.26. In data set [1] (0.5 mg/kg), this compound yielded an HR of 397 ± 73, an LVEDP of 33.64 ± 8.12 and an LVSP of 132.11 ± 11.10. For the same compound, in data set [1] (1 mg/kg), the HR is 311 ± 54, the LVEDP was 45.50 ± 6.43 and the LVSP is 105.00 ± 12.23.
`COc1ccc(CCN(C)CCCC(C#N)(c2ccc(OC)c(OC)c2)C(C)C)cc1OC` (stereo not shown) [Ver, verapamil]: the “reduction of Ca^2+ fluorescence intensities” value in data set [2] (10 μM, positive control) is given as 86%. For the same compound, in data set [1] (0.25 mg/kg), the “+LVdp/dtmax” value was determined as 1022.49 ± 130.44, the HR was 328 ± 28, the LVEDP came out at 25.39 ± 7.45 and the LVSP stood at 132.24 ± 12.74. Besides, the “−LVdp/dtmax” value in data set [1] (0.25 mg/kg) turned out to be 932.24 ± 95.54. In data set [1] (0.5 mg/kg), the “+LVdp/dtmax” value is 925.38 ± 172.37, the HR is reported as 302 ± 77, the LVEDP was determined as 38.21 ± 8.18 and the LVSP stood at 112.74 ± 21.08. The “−LVdp/dtmax” value in data set [1] (0.5 mg/kg) came to 699.87 ± 91.11. In data set [1] (1 mg/kg), the “+LVdp/dtmax” value was found to be 885.32 ± 122.21, the HR was determined as 298 ± 41, the LVEDP is reported as 42.21 ± 6.23 and the LVSP is 102.21 ± 14.21. Besides, in data set [1] (1 mg/kg), the “−LVdp/dtmax” value is listed as 657.80 ± 85.55.
As for `COc1ccc(C[N+]2(CCCC(=O)c3ccc(F)cc3)CCC(O)(c3ccc(Cl)cc3)CC2)cc1` (stereo not shown) [Compound X1], the “LDH under H/R” value is “decreased” in data set [3] and “remained unchanged” in data set [6]. The “maximum inhibition rate of L-type calcium current” value in data set [4] is on record as 97.2%. In addition, the IC50 in data set [4] was 472 nM; in data set [5], 432 nM. Also, the “reduction of Ca^2+ fluorescent intensity, maximum degree” value (shortened to “reduction … maximum degree”) in data set [2] is given as 76.5%. In data set [5], the “maximum inhibition on the vascular ring contraction” value is 92.5%. Moreover, the HR in data set [1] (0.25 mg/kg) worked out at 355 ± 61; in data set [1] (0.5 mg/kg), 356 ± 55; in data set [1] (1 mg/kg), 342 ± 51. Besides, the values for the LVEDP in data set [1] (0.25 mg/kg), in data set [1] (0.5 mg/kg) and in data set [1] (1 mg/kg) were 20.34 ± 3.06, 21.02 ± 3.08 and 29.66 ± 4.33, respectively. Besides, the LVSP in data set [1] (0.25 mg/kg) is recorded as 145.32 ± 20.08; in data set [1] (0.5 mg/kg), 145.38 ± 18.06; in data set [1] (1 mg/kg) it was 132.32 ± 18.66. For the same compound, the “+LVdp/dtmax” value in data set [7] (0.25 mg/kg) came out at 1043.01 ± 143.24; in data set [7] (0.5 mg/kg), 1011.02 ± 152.04; in data set [7] (1 mg/kg) it was 946.02 ± 132.23. For the same compound, the “−LVdp/dtmax” value is 899.04 ± 142.24 in data set [7] (0.25 mg/kg), 908.21 ± 151.02 in data set [7] (0.5 mg/kg) and 884.82 ± 148.09 in data set [7] (1 mg/kg).
With `COc1cccc(C[N+]2(CCCC(=O)c3ccc(F)cc3)CCC(O)(c3ccc(Cl)cc3)CC2)c1` (stereo not shown) [Compound X2], the “LDH under H/R” value in data set [3] is recorded as “decreased”; in data set [6] it was “remained unchanged”. Further, the “maximum inhibition rate of L-type calcium current” value in data set [4] came to 82.8%. Also, the IC50 stood at 493 nM in data set [4] and 4220 nM in data set [5]. Besides, the “reduction … maximum degree” value in data set [2] came out at 53.6%. Besides, in data set [5], the “maximum inhibition on the vascular ring contraction” value stood at 67.08%. For the same compound, the values for the HR in data set [1] (0.25 mg/kg), in data set [1] (0.5 mg/kg) and in data set [1] (1 mg/kg) were 365 ± 59, 362 ± 63 and 356 ± 53, respectively. Further, the LVEDP in data set [1] (0.25 mg/kg) stood at 22.12 ± 3.76; in data set [1] (0.5 mg/kg), 22.08 ± 3.44; in data set [1] (1 mg/kg), 26.93 ± 3.26. Besides, the LVSP was found to be 145.98 ± 16.42 in data set [1] (0.25 mg/kg), 146.66 ± 18.04 in data set [1] (0.5 mg/kg) and 138.94 ± 16.06 in data set [1] (1 mg/kg). The “+LVdp/dtmax” value was found to be 1029.32 ± 144.08 in data set [7] (0.25 mg/kg), 1022.14 ± 142.21 in data set [7] (0.5 mg/kg) and 902.89 ± 138.88 in data set [7] (1 mg/kg). Further, the “−LVdp/dtmax” value in data set [7] (0.25 mg/kg) turned out to be 982.13 ± 154.56; in data set [7] (0.5 mg/kg), 984.12 ± 144.32; in data set [7] (1 mg/kg) it was 955.23 ± 146.08.
Regarding `COc1ccc([C@@H]2Sc3ccccc3N(CCN(C)C)C(=O)[C@@H]2OC(C)=O)cc1` [Dil, diltiazem], in data set [1] (0.25 mg/kg), the “+LVdp/dtmax” value was 1099.22 ± 142.66, the HR worked out at 322 ± 25, the LVEDP is given as 30.21 ± 3.99 and the LVSP is on record as 138.54 ± 21.35. For the same compound, the “−LVdp/dtmax” value in data set [1] (0.25 mg/kg) was 787.25 ± 74.25. In addition, in data set [1] (0.5 mg/kg), the “+LVdp/dtmax” value stood at 922.11 ± 129.44, the HR is recorded as 321 ± 29, the LVEDP was 33.26 ± 4.26 and the LVSP is recorded as 130.25 ± 17.33. In data set [1] (0.5 mg/kg), the “−LVdp/dtmax” value was determined as 689.76 ± 77.62. Also, in data set [1] (1 mg/kg), the “+LVdp/dtmax” value turned out to be 899.08 ± 128.32, the HR is listed as 304 ± 47, the LVEDP is recorded as 38.51 ± 7.45 and the LVSP is recorded as 127.55 ± 21.23. In data set [1] (1 mg/kg), the “−LVdp/dtmax” value was found to be 622.94 ± 84.42.
With `COc1ccccc1C[N+]1(CCCC(=O)c2ccc(F)cc2)CCC(O)(c2ccc(Cl)cc2)CC1` (stereo not shown) [Compound X3], the figures for the “LDH under H/R” value in data set [3] and in data set [6] were “decreased” and “remained unchanged”, respectively. Also, in data set [4], the “maximum inhibition rate of L-type calcium current” value turned out to be 70.2%. For the same compound, the figures for the IC50 in data set [4] and in data set [5] were 721 nM and 7420 nM, respectively. Also, in data set [2], the “reduction … maximum degree” value was determined as 24.53%. Further, the “maximum inhibition on the vascular ring contraction” value in data set [5] is 48.66%. The HR in data set [1] (0.25 mg/kg) turned out to be 358 ± 52; in data set [1] (0.5 mg/kg) it was 362 ± 55; in data set [1] (1 mg/kg), 368 ± 54. For the same compound, the figures for the LVEDP in data set [1] (0.25 mg/kg), in data set [1] (0.5 mg/kg) and in data set [1] (1 mg/kg) were 23.86 ± 3.65, 24.91 ± 3.07 and 23.69 ± 3.77, respectively. In addition, the LVSP in data set [1] (0.25 mg/kg) came to 142.94 ± 18.08; in data set [1] (0.5 mg/kg), 148.98 ± 20.02; in data set [1] (1 mg/kg), 152.88 ± 21.04. In addition, the figures for the “+LVdp/dtmax” value in data set [7] (0.25 mg/kg), in data set [7] (0.5 mg/kg) and in data set [7] (1 mg/kg) were 1129.28 ± 162.26, 1221.12 ± 170.02 and 1248.36 ± 182.32, respectively. The “−LVdp/dtmax” value came to 989.92 ± 161.23 in data set [7] (0.25 mg/kg), 1021.23 ± 153.77 in data set [7] (0.5 mg/kg) and 1022.15 ± 162.24 in data set [7] (1 mg/kg).
